The record followed here is patent US20060154954A1, “Combinations and use of selected pharmaceutically active compounds” (ALTANA PHARMA AG, priority 2003, published 2006).

The assay relates to gastric lesion. The assay is described as follows: Gastric lesions after pylorus ligation and oral acetylsalicylic acid in the rat (Shay rat, modified by Okabe). Type of assay: in vivo. The conditions noted are these: 4 hours after pylorus ligation and oral 100 mg/kg acetylsalicylic acid.
[1] abbreviates: 1.0 μmol/kg intraduodenally, read-out: Reduction of lesion index versus control in %.

With `CCO[C@@H]1c2ccn3c(C)c(C)nc3c2O[C@H](c2ccccc2)[C@@H]1O` [Example 14, (7R,8R,9R)-2,3-dimethyl-8-hydroxy-7-ethoxy-9-phenyl-7H-8,9-dihydropyrano[2,3-c]imidazo[1,2-a]pyridine], the “Reduction of lesion index versus control in %” value (1.0 μmol/kg intraduodenally) amounted to 100%.
For the molecule `Cc1nc2c3c(ccn2c1C)[C@@H](O)[C@@](C)(O)[C@@H](c1ccccc1)N3` [Example 11, (7R,8S,9R)-2,3,8-trimethyl-7,8-dihydroxy-9-phenyl-7,8,9,10-tetrahydroimidazo[1,2-h][1,7]naphthyridine], the inhibition in vivo at 1 µmol/kg under setting [1] worked out at 100%.
Consider `COCCO[C@@H]1c2ccn3c(C)c(C)nc3c2O[C@H](c2ccccc2)[C@@H]1O` [Example 13, (7R,8R,9R)-2,3-dimethyl-8-hydroxy-7-(2-methoxyethoxy)-9-phenyl-7H-8,9-dihydropyrano[2,3-c]imidazo[1,2-a]pyridine], for which the “Reduction of lesion index versus control in %” value (1.0 μmol/kg intraduodenally) is reported as 100%.
Take `COCCO[C@@H]1c2ccn3c(Cl)c(C)nc3c2N[C@H](c2ccccc2)[C@H]1O` [Example 16, (7R,8R,9R)-3-chloro-8-hydroxy-7-(2-methoxyethoxy)-2-methyl-9-phenyl-7.8.9.10-tetrahydroimidazo[1.2-h][1.7]naphthyridine]: where the note is “6.0 μmol/kg intraduodenally”, the “Reduction of lesion index versus control in %” value is 100%.
For `CCO[C@@H]1c2ccn3c(C)c(C)nc3c2N[C@H](c2ccccc2)[C@H]1O` [Example 4, (7R, 8R, 9R)-2,3-dimethyl-7-ethoxy-8-hydroxy-9-phenyl-7,8,9,10-tetrahydroimidazo[1,2-h][1,7]naphthyridine], under setting [1], the inhibition in vivo at 1 µmol/kg amounted to 100%.
Take `COCCO[C@@H]1c2ccn3c(C)c(C)nc3c2N[C@H](c2ccccc2)[C@H]1OC(=O)OC` [Example 9, (7R,8R,9R)-8-methoxycarbonyloxy-7-(2-methoxyethoxy)-2,3-dimethyl-9-phenyl-7,8,9,10-tetrahydroimidazo[1,2-h][1,7]naphthyridine]: the inhibition in vivo at 1 µmol/kg under setting [1] was 100%.
For `CO[C@@H]1c2ccn3c(C)c(C)nc3c2N[C@H](c2ccccc2)[C@H]1O` [Example 2, (7R, 8R, 9R)-2,3-dimethyl-8-hydroxy-7-methoxy-9-phenyl-7,8,9,10-tetrahydroimidazo[1,2-h][1,7]naphthyridine], the inhibition in vivo at 1 µmol/kg under setting [1] stood at 100%.
Take `Cc1nc2c3c(ccn2c1C)[C@@](C)(O)[C@H](O)[C@@H](c1ccccc1)N3` [Example 12, (7R,8R,9R)-2,3,7-trimethyl-7,8-dihydroxy-9-phenyl-7,8,9,10-tetrahydroimidazo[1,2-h][1,7]naphthyridine]: under setting [1], the inhibition in vivo at 1 µmol/kg was found to be 100%.
As to `COCCO[C@@H]1c2ccn3c(C)c(C)nc3c2N[C@H](c2ccccc2)[C@H]1OC(=O)CN(C)C` [Example 10, (7R,8R,9R)-7-(2-methoxyethoxy)-2,3-dimethyl-8-(N,N-dimethylaminomethylcarbonyloxy)-9-phenyl-7,8,9,10-tetrahydroimidazo[1,2-h][1,7]naphthyridine], the inhibition in vivo at 1 µmol/kg under setting [1] is 100%.
For `COCCO[C@@H]1c2ccn3c(C)c(C)nc3c2N[C@H](c2ccccc2)[C@H]1O` [Example 1, (7R,8R,9R)-8-hydroxy-7-(2-methoxyethoxy)-2,3-dimethyl-9-phenyl-7,8,9,10-tetrahydro-imi-dazo[1,2-h][1,7]naphthyridine], the “Reduction of lesion index versus control in %” value (3.0 μmol/kg intraduodenally) was determined as 100%.
Turning to `COCCO[C@@H]1c2ccn3c(C)c(C)nc3c2N[C@H](c2ccccc2)[C@H]1OC(=O)c1ccccc1` [Example 8, (7R,8R,9R)-8-benzoyloxy-7-(2-methoxyethoxy)-2,3-dimethyl-9-phenyl-7,8,9,10-tetrahydroimidazo[1,2-h][1,7]naphthyridine], the inhibition in vivo at 1 µmol/kg under setting [1] was 100%.
`COCCO[C@@H]1c2ccn3c(Cl)c(C)nc3c2O[C@H](c2ccccc2)[C@@H]1O` [Example 17, (7R,8R,9R)-3-chloro-8-hydroxy-7-(2-methoxyethoxy)-2-methyl-9-phenyl-7H-8,9-dihydro-pyrano[2,3-c]imidazo[1,2-a]pyridine]: the “Reduction of lesion index versus control in %” value (1.0 μmol/kg intraduodenally) is reported as 100%.
For the molecule `CCO[C@H]1c2ccn3c(C)c(C)nc3c2N[C@H](c2ccccc2)[C@H]1O` [Example 5, (7S, 8R, 9R)-2,3-dimethyl-7-ethoxy-8-hydroxy-9-phenyl-7,8,9,10-tetrahydroimidazo[1,2-h][1,7]naphthyridine], the inhibition in vivo at 1 µmol/kg under setting [1] turned out to be 100%.
On the same count and under the same terms, to `COCCO[C@@H]1c2ccn3c(C)c(C)nc3c2N[C@H](c2ccccc2)[C@H]1OC(C)=O` [Example 7, (7R,8R,9R)-8-acetoxy-7-(2-methoxyethoxy)-2,3-dimethyl-9-phenyl-7,8,9,10-tetrahydroimidazo[1,2-h][1,7]naphthyridine] belongs 100%.
`COCCO[C@@H]1c2ccn3cc(C)nc3c2N[C@H](c2ccccc2)[C@H]1O` [Example 15, (7R,8R,9R)-8-hydroxy-2-methyl-7-(2-methoxyethoxy)-9-phenyl-7,8,9,10-tetrahydroimidazo[1,2-h][1,7]naphthyridine]: the inhibition in vivo at 6 µmol/kg (6.0 μmol/kg intraduodenally, read-out: Reduction of lesion index versus control in %) is 100%.
On to `CO[C@H]1c2ccn3c(C)c(C)nc3c2N[C@H](c2ccccc2)[C@H]1O` [Example 3, (7S, 8R, 9R)-2,3-dimethyl-8-hydroxy-7-methoxy-9-phenyl-7,8,9,10-tetrahydroimidazo[1,2-h][1,7]naphthyridine], for which, under “10.0 μmol/kg intraduodenally, read-out: Reduction of lesion index versus control in %”, the inhibition in vivo at 10 µmol/kg was 100%.
As for `COCCO[C@@H]1c2ccn3c(C)c(C)nc3c2N[C@H](c2ccccc2)[C@H]1O` [Example 6, (7R, 8R, 9R)-2,3-dimethyl-8-hydroxy-7-(2-methoxyethoxy)-9-phenyl-7,8,9,10-tetrahydroimidazo[1,2-h][1,7]naphthyridine], the inhibition in vivo at 1 µmol/kg under setting [1] was determined as 100%.
